From patent publication US20230151037A1, “GPR40 AGONISTS” (Kallyope, Inc., priority 2020, published 2023)

Assays:
[1] = In vivo plasma levels in mice after oral gavage, with unbound exposure from plasma protein binding; conditions: male C57BL/6J mice, 30 mg/kg oral gavage; for Exposure (nM) (unbound), unbound exposure in plasma: total exposure x free fraction; for concentration at 2 h / concentration at 5 h: mouse, plasma, read-out: Exposure (nM), total exposure in plasma
Method: Male C57BL/6J mice 10-12 weeks old were dosed with test article (30 mg/kg) or vehicle by oral gavage. Animals were euthanized with carbon dioxide at 2 h or 5 h post dose. Blood was collected for measurement of plasma concentrations of test article. Unbound exposure was calculated by multiplying the measured total exposure by the free fraction as assessed from plasma protein binding.
Plasma protein binding to isotonic phosphate buffer (PBS) containing 10% C57 BL/6 mouse plasma was determined using equilibrium dialysis of plasma spiked with test article (2 μM) against a dialysis buffer (100 mM sodium phosphate and 150 mM NaCl). At the end of the dialysis (4 hr), aliquots of the plasma and buffer were processed by protein precipitation for LC-MS/MS analysis to quantitate the test article.
Results for exemplary compounds (total exposure in plasma and unbound exposure in plasma; ratio of EC50 to unbound exposure in plasma) are shown in Table 2.

[2] = molecular target: T1, human GPR40 (Homo sapiens, UniProt O14842); assay: Inositol phosphate accumulation assay (IP1 HTRF) in CHO-K1 cells expressing human GPR40; format: cell-based; conditions: 90 min
T1 construct: host or cells: CHO-K1
T1 sequence (O14842 whole entry): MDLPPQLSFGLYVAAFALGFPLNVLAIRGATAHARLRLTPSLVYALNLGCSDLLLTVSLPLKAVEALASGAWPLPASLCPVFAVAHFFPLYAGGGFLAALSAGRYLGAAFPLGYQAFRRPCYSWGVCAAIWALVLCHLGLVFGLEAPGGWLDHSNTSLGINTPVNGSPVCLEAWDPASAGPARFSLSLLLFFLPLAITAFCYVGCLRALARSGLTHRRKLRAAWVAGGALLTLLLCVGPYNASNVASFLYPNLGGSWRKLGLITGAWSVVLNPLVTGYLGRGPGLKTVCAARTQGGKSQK
Method: CHO-K1 cells expressing human GPR40 were purchased from DiscoverX (95-1005C2). HEK293 cells expressing mouse FFAR1 were prepared using a mouse FFAR1 carrying plasmid purchased from OriGene Technologies (MR222997). The cells were transfected using Lipofectamine 2000 using manufacturer instructions and stable cell line was established from a single cell using geneticine selection. Assay ready frozen (ARF) cells were prepared and used throughout the study.
The assay was performed in a 384-well plate format using IP1 assay kit from Cis-Bio. ARF cells expressing FFAR1 (mouse and human) were thawed, washed and then plated in the appropriate medium (F12 based medium for CHO hFFAR1 and DMEM based medium for HEK293 mFFAR1-both were supplemented with 10% FBS and penicillin/streptomycin). 20 μL of 3.5×10^5 cells/mL were plated on a Poly D-Lysine coated 384-well white plate. The cells were then incubated for 16 hr at 37° C./5% CO2. After 16 hr the medium was removed and 15 μL of stimulation buffer containing the test compounds was added to the cells. The plates were then incubated for 90 min at 37° C./5% CO2. 5 μL of detection buffer (prepared as described in the IP-one kit) was added to each well and the plates were incubated at RT for 1 hr.
[…] was measured using ClarioSTAR plate reader, calculating the ratio between emissions at 665 nm and 620 nm (HTRF ratio). HTRF ratio for positive (Max) and negative (Min) controls were used to normalize HTRF data and generate values for % activity. EC50 and Max activity values were determined using a standard 4-parameter fit.

Compound | EC50 [2] | also measured
COc1cc(-c2ccc(COc3cccc(C(CP(C)(=O)O)C4CC4)c3)cc2CN(C(C)C)C(C)C)c(F)cn1 (single isomer, unassigned) [Compound 13, (2-cyclopropyl-2-(3-((3-((diisopropylamino)methyl)-4-(5-fluoro-2-methoxypyridin-4-yl)benzyl)oxy)phenyl)ethyl)(methyl)phosphinic acid] | 50 to 250 nM | Exposure (nM) (unbound), unbound exposure in plasma ([1]; 2 h post-dose): 1.2 nM; concentration at 2 h ([1]; 2 h post-dose): 294 nM
COc1cc(-c2ccc(COc3cccc(C(C4CC4)C(C)(C)P(=O)(O)O)c3)cc2CN(C(C)C)C(C)C)c(F)cn1 (stereo not drawn) [Compound 22, (1-cyclopropyl-1-(3-((3-((diisopropylamino)methyl)-4-(5-fluoro-2-methoxypyridin-4-yl)benzyl)oxy)phenyl)-2-methylpropan-2-yl)phosphonic acid] | > 1000 nM | 
CCC(C[PH](=O)O)c1cccc(OCc2ccc(-c3cc(OC)ncc3F)c(CN(C(C)C)C(C)C)c2)c1 (stereo not drawn) [Compound 23, (2-(3-((3-((diisopropylamino)methyl)-4-(5-fluoro-2-methoxypyridin-4-yl)benzyl)oxy)phenyl)butyl)phosphinic acid] | > 1000 nM | 
COc1ccc(F)c(-c2ccc(COc3cccc([C@@H](CP(C)(=O)O)C4CC4)c3)cc2[C@@H](OC)C(C)(C)C)c1 [Compound 24, ((S)-2-cyclopropyl-2-(3-((2′-fluoro-5′-methoxy-2-((S)-1-methoxy-2,2-dimethylpropyl)-[1,1′-biphenyl]-4-yl)methoxy)phenyl)ethyl)(methyl)phosphinic acid] | ≤ 50 nM | Exposure (nM) (unbound), unbound exposure in plasma ([1]; 5 h post-dose): 0.03 nM; concentration at 5 h ([1]; 5 h post-dose): 145 nM
COc1cc(-c2ccc(COc3cccc([C@@H](CP(C)(=O)O)C4CC4)c3)cc2[C@@H](OC)C(C)(C)C)c(F)cn1 [Compound 25, ((S)-2-cyclopropyl-2-(3-((4-(5-fluoro-2-methoxypyridin-4-yl)-3-((S)-1-methoxy-2,2-dimethylpropyl)benzyl)oxy)phenyl)ethyl)(methyl)phosphinic acid] | ≤ 50 nM | Exposure (nM) (unbound), unbound exposure in plasma ([1]; 2 h post-dose): 1.1 nM; concentration at 2 h ([1]; 2 h post-dose): 1840 nM
CO[C@H](c1cc(COc2cccc([C@@H](CP(C)(=O)O)C3CC3)c2)ccc1-c1cc(O)ccc1F)C(C)(C)C [Compound 26, ((S)-2-cyclopropyl-2-(3-((2′-fluoro-5′-hydroxy-2-((S)-1-methoxy-2,2-dimethylpropyl)-[1,1′-biphenyl]-4-yl)methoxy)phenyl)ethyl)(methyl)phosphinic acid] | ≤ 50 nM | 
COc1ccc(F)c(-c2ccc(COc3cc([C@@H](CP(C)(=O)O)C4CC4)ccn3)cc2[C@@H](OC)C(C)(C)C)c1 [Compound 27, ((S)-2-cyclopropyl-2-(2-((2′-fluoro-5′-methoxy-2-((S)-1-methoxy-2,2-dimethylpropyl)-[1,1′-biphenyl]-4-yl)methoxy)pyridin-4-yl)ethyl)(methyl)phosphinic acid] | ≤ 50 nM | 
COc1cc(-c2ccc(COc3cc([C@@H](CP(C)(=O)O)C4CC4)ccn3)cc2[C@@H](OC)C(C)(C)C)c(F)cn1 [Compound 28, ((S)-2-cyclopropyl-2-(2-((4-(5-fluoro-2-methoxypyridin-4-yl)-3-((S)-1-methoxy-2,2-dimethylpropyl)benzyl)oxy)pyridin-4-yl)ethyl)(methyl)phosphinic acid] | ≤ 50 nM | 
COc1cccc(-c2ccc(COc3cccc([C@@H](CP(C)(=O)O)C4CC4)c3)cc2[C@@H](OC)C(C)(C)C)c1 [Compound 29, ((S)-2-cyclopropyl-2-(3-((3′-methoxy-2-((S)-1-methoxy-2,2-dimethylpropyl)-[1,1′-biphenyl]-4-yl)methoxy)phenyl)ethyl)(methyl)phosphinic acid] | ≤ 50 nM | Exposure (nM) (unbound), unbound exposure in plasma ([1]; 5 h post-dose): 0.06 nM; concentration at 5 h ([1]; 5 h post-dose): 140 nM
COc1cccc(-c2ccc(COc3cc([C@@H](CP(C)(=O)O)C4CC4)ccn3)cc2[C@@H](OC)C(C)(C)C)c1 [Compound 30, ((S)-2-cyclopropyl-2-(2-((3′-methoxy-2-((S)-1-methoxy-2,2-dimethylpropyl)-[1,1′-biphenyl]-4-yl)methoxy)pyridin-4-yl)ethyl)(methyl)phosphinic acid] | ≤ 50 nM | 
CO[C@H](c1cc(COc2cc([C@@H](CP(C)(=O)O)C3CC3)ccn2)ccc1-c1cc(O)ccc1F)C(C)(C)C [Compound 31, ((S)-2-cyclopropyl-2-(2-((2′-fluoro-5′-hydroxy-2-((S)-1-methoxy-2,2-dimethylpropyl)-[1,1′-biphenyl]-4-yl)methoxy)pyridin-4-yl)ethyl)(methyl)phosphinic acid] | ≤ 50 nM | 
COc1cc(-c2ccc(COc3cccc(C(C)CP(C)(=O)O)c3)cc2[C@@H](OC)C(C)(C)C)c(F)cn1 (stereo partly drawn) [Compound 34, (2-(3-((4-(5-fluoro-2-methoxypyridin-4-yl)-3-((S)-1-methoxy-2,2-dimethylpropyl)benzyl)oxy)phenyl)propyl)(methyl)phosphinic acid] | ≤ 50 nM | 
COc1cc(-c2ccc(COc3cccc(C[C@@H](C)P(C)(=O)O)c3)cc2[C@@H](OC)C(C)(C)C)c(F)cn1 [Compound 41, ((R)-1-(3-((4-(5-fluoro-2-methoxypyridin-4-yl)-3-((S)-1-methoxy-2,2-dimethylpropyl)benzyl)oxy)phenyl)propan-2-yl)(methyl)phosphinic acid] | ≤ 50 nM | 
